We go through twelve compounds from PubChem BioAssay (NCI).

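Five concentrations, 48 hours, 96-well plates. Abbreviation: GI50, concentration required for 50% inhibition of growth. TGI denotes the concentration required for complete inhibition of growth.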 Some results are limits rather than exact numbers.

Among the test systems are UACC-257 melanoma; K-562 leukemia; ACHN renal; RPMI-8226 leukemia; SN12C renal; RXF 393 renal; OVCAR-3 ovarian; UO-31 renal; HOP-62 NSCLC; PC-3 prostate.
Common to all, as to experiment: growth of human tumour cells (NCI), 48 h

Regarding `CC(C)CCCC(C)[C@H]1CCC2C3CC=C4C[C@@H](OC(=O)CC(CC(=O)[O-])C(=O)[O-])CC[C@]4(C)C3CC[C@@]21C.N.N.[Pt+4]` (some centres not stated), the GI50 in the assay on UACC-257 melanoma was over 100 µM; in the assay with K-562 leukemia, over 100 µM; with ACHN renal, 47.6 µM; with RPMI-8226 leukemia it was over 100 µM; with SN12C renal it was over 100 µM; in the assay on RXF 393 renal it was 47.1 µM. Further, the GI50 in the assay on OVCAR-3 ovarian was over 100 µM. For the same compound, the TGI in the assay with UACC-257 melanoma, in the assay on K-562 leukemia, in the assay on ACHN renal, in the assay on RPMI-8226 leukemia, with SN12C renal and in the assay on RXF 393 renal was over 100 µM each time. Further, the TGI in the assay with OVCAR-3 ovarian is over 100 µM.

For `COc1ccccc1NC(=O)C1=C(C)NC(C)=C(C(=O)Nc2ccccc2OC)C1c1ccc(C2C(C(=O)Nc3ccccc3OC)=C(C)NC(C)=C2C(=O)Nc2ccccc2OC)cc1`, the TGI in the assay with UACC-257 melanoma was found to be 6.17 µM; with K-562 leukemia, 13.2 µM; in the assay on UO-31 renal it was 14.9 µM; in the assay on ACHN renal it was 10 µM; with RPMI-8226 leukemia, 8 µM; in the assay with HOP-62 NSCLC it was 14 µM. Moreover, the results for the TGI in the assay with SN12C renal, in the assay with RXF 393 renal and in the assay on OVCAR-3 ovarian were 3.69 µM, 5.06 µM and 6.08 µM, respectively.

Turning to `C=CC(=O)OCCCS(=O)(=O)[O-].C=CC(=O)OCCCS(=O)(=O)[O-].NC1CCCCC1N.[Pt+4]`, the GI50 in the assay on UACC-257 melanoma, with K-562 leukemia, in the assay on UO-31 renal, in the assay with ACHN renal, with RPMI-8226 leukemia and in the assay on SN12C renal was over 25 µM throughout. Besides, the GI50 in the assay with RXF 393 renal and in the assay on OVCAR-3 ovarian was over 25 µM throughout. Also, the TGI with UACC-257 melanoma, in the assay with K-562 leukemia, in the assay with UO-31 renal, in the assay on ACHN renal, in the assay with RPMI-8226 leukemia and with SN12C renal was over 25 µM each time. Besides, the TGI with RXF 393 renal and in the assay on OVCAR-3 ovarian was over 25 µM each time.

`C=C(C)C1Cc2cc(C(C)=O)ccc2O1` (configuration not stated): the TGI in the assay on PC-3 prostate, in the assay on UACC-257 melanoma, in the assay with K-562 leukemia, in the assay on UO-31 renal, with ACHN renal and with RPMI-8226 leukemia was over 100 µM each time. Besides, the TGI in the assay with SN12C renal and in the assay with OVCAR-3 ovarian was over 100 µM each time.

In the case of `COc1ccc(C2C(C(=O)O)=C(CO)Oc3cc4c(cc32)OCO4)c(OC)c1` (configuration not stated), the TGI in the assay with UACC-257 melanoma was over 100 µM; in the assay on K-562 leukemia, over 100 µM; in the assay with UO-31 renal, over 100 µM; with ACHN renal, over 100 µM; in the assay with RPMI-8226 leukemia it was over 100 µM; in the assay on HOP-62 NSCLC it was 72 µM. The TGI with SN12C renal, with RXF 393 renal and in the assay with OVCAR-3 ovarian was over 100 µM throughout.

Take `CC(C(=O)c1ccc(O)cc1)C1(O)C(=O)Nc2c(Cl)cc(Cl)cc21` (configuration not stated): the TGI is 33.3 µM in the assay with UACC-257 melanoma; 32.6 µM in the assay with K-562 leukemia; over 100 µM in the assay with UO-31 renal; 28.3 µM in the assay on ACHN renal; 71.5 µM in the assay on RPMI-8226 leukemia; over 100 µM with HOP-62 NSCLC. The figures for the TGI in the assay on SN12C renal, in the assay on RXF 393 renal and with OVCAR-3 ovarian were over 100 µM, 68.8 µM and over 84.3 µM, respectively.

Turning to `O=C(CC(=O)c1cccc2ccccc12)C(=O)Nc1nccs1`, the TGI in the assay on UACC-257 melanoma, in the assay on K-562 leukemia, in the assay with UO-31 renal, with ACHN renal, in the assay on RPMI-8226 leukemia and in the assay with HOP-62 NSCLC was over 100 µM each time. In addition, the TGI in the assay on SN12C renal, in the assay with RXF 393 renal and in the assay on OVCAR-3 ovarian was over 100 µM throughout.

For the compound `CC(C)(C)CC(C)(C)c1cc2c(O)c(c1)Cc1cc(C(C)(C)CC(C)(C)C)cc(c1O)Cc1cc(C(C)(C)CC(C)(C)C)cc(c1O)Cc1cc(C(C)(C)CC(C)(C)C)cc(c1O)Cc1cc(C(C)(C)CC(C)(C)C)cc(c1O)Cc1cc(C(C)(C)CC(C)(C)C)cc(c1O)Cc1cc(C(C)(C)CC(C)(C)C)cc(c1O)Cc1cc(C(C)(C)CC(C)(C)C)cc(c1O)C2`, the TGI in the assay on UACC-257 melanoma, in the assay with K-562 leukemia, in the assay with UO-31 renal, with ACHN renal, in the assay on RPMI-8226 leukemia and in the assay with HOP-62 NSCLC was over 100 µM throughout. The TGI in the assay with SN12C renal, with RXF 393 renal and in the assay on OVCAR-3 ovarian was over 100 µM in each case.

Take `O=c1c2cc(Br)ccc2n(C2OC(CO)C(O)C(O)C2O)c(=S)n1-c1ccccc1` (configuration not stated): the TGI with UACC-257 melanoma, in the assay on K-562 leukemia, with UO-31 renal, with ACHN renal, in the assay with RPMI-8226 leukemia and in the assay with HOP-62 NSCLC was over 100 µM in each case. The TGI with SN12C renal, with RXF 393 renal and in the assay on OVCAR-3 ovarian was over 100 µM in each case.

As for `CC/C(=N/O)C(C)C(=O)CCC(=O)Nc1ccc(Cl)cc1` (configuration not stated), the TGI in the assay with UACC-257 melanoma, in the assay on K-562 leukemia, in the assay with UO-31 renal, with ACHN renal, with RPMI-8226 leukemia and in the assay on SN12C renal was over 100 µM throughout. Moreover, the TGI in the assay with RXF 393 renal and in the assay with OVCAR-3 ovarian was over 100 µM in each case.

With `O=C(c1nc2ccc(Cl)cc2[nH]c1=O)C(O)c1cccc([N+](=O)[O-])c1` (configuration not stated), the TGI in the assay on UACC-257 melanoma, in the assay on K-562 leukemia, with UO-31 renal, in the assay on ACHN renal, in the assay on RPMI-8226 leukemia and with HOP-62 NSCLC was over 100 µM in each case. Besides, the TGI with SN12C renal, in the assay on RXF 393 renal and in the assay on OVCAR-3 ovarian was over 100 µM in each case.

`CC1=CC[C@@H]2C(=O)C=CC=C[C@H]12.[C-]#[O+].[C-]#[O+].[C-]#[O+].[Fe]`: the GI50 in the assay with UACC-257 melanoma, in the assay on K-562 leukemia, with UO-31 renal, with ACHN renal, in the assay with RPMI-8226 leukemia and in the assay with HOP-62 NSCLC was over 100 µM each time. Also, the GI50 in the assay on SN12C renal, with RXF 393 renal and in the assay with OVCAR-3 ovarian was over 100 µM each time. The TGI in the assay on UACC-257 melanoma, in the assay on K-562 leukemia, in the assay on UO-31 renal, in the assay with ACHN renal, in the assay on RPMI-8226 leukemia and with HOP-62 NSCLC was over 100 µM throughout. Moreover, the TGI in the assay on SN12C renal, in the assay on RXF 393 renal and in the assay with OVCAR-3 ovarian was over 100 µM each time.
